Assay: In vitro release of TU, jar technique, 1% CTAB in TRIS buffer pH 8.7, 37° C.
Assay type: in vitro ADME
Conditions: FIG. 14, Table 11 formulations, 200 mg depot in 200 mL media
Procedure: The in vitro release profiles of solidifying liquid polymer formulations containing TU were conducted using jar technique method with 1% CTAB surfactant in TRIS buffer, pH 8.7 at 37° C. Depots were made by injecting 200 mg of formulation into 200 mL release media. Samples were then periodically collected and analyzed for released drug content. […] Non-formulated TU with a particle size of 67 μm (i.e., with no polymer) were also analyzed as a reference. Additionally, a 20% TU non-solidifying liquid polymer comprising 30% of a 14.2 kDa PDLCL liquid polymer with 25% NMP and 25% PEG 300 was prepared as a reference.

## CCCCCCCCCCC(=O)O[C@H]1CC[C@H]2[C@@H]3CCC4=CC(=O)CC[C@]4(C)[C@H]3CC[C@]12C [non-formulated TU particles, testosterone undecanoate]
  TU released within the first 7 days: approximately 75%

— patent publication US20230355511A1, “BIO[…] AND SOLVENT COMPOSITIONS AND SYSTEMS FOR EXTENDED STORAGE AND […] OF ACTIVE PHARMACEUTICAL INGREDIENTS” (TOLMAR INTERNATIONAL LIMITED, priority 2020, published 2023)
